Drawing on ChEMBL document CHEMBL3044678, “The synthesis and herbicidal activity of 1-alkyl-3-(alpha-hydroxy-substituted benzylidene)pyrrolidine-2,4-diones” (2005), this text covers inhibition of growth and Activity for 24 compounds.

Active and inactive are the calls of the source. The rule behind the calls is not given here.

Test [1] concerns Brassica napus. Kind of test: Herbicidal activity against Brassica napus (oilseed rape) assessed as growth inhibition at 10 ug/mL. The test is classed as functional. The following applies: read-out: GI.
Test [2] has as its system Brassica napus. Kind of test: Herbicidal activity against Brassica napus (oilseed rape) assessed as growth inhibition at 100 ug/mL. The test is classed as functional. As to conditions: read-out: GI.
Test [3] concerns Echinochloa crus-galli. Put plainly: Herbicidal activity against Echinochloa crus-galli (barnyard grass) assessed as growth inhibition at 100 ug/mL. The test is classed as functional. The following applies: (L.) Beauv, read-out: GI.
Test [4] deals with Echinochloa crus-galli. Put plainly: Herbicidal activity against Echinochloa crus-galli (barnyard grass) assessed as plant bleaching effect at 100 ug/mL. The test is classed as functional, organism-based. As to conditions: (L.) Beauv.
Test [5] concerns Echinochloa crus-galli. Put plainly: Herbicidal activity against Echinochloa crus-galli (barnyard grass) assessed as growth inhibition at 10 ug/mL. The test is classed as functional. The following applies: (L.) Beauv, read-out: GI.

On to `CC(C)N1CC(=O)/C(=C(/O)c2cccc([N+](=O)[O-])c2)C1=O`, for which the values for the inhibition of growth at 10 µg/mL in test [1] and in test [5] were 10.2% and 0%, respectively. Moreover, the figures for the inhibition of growth at 100 µg/mL in test [2] and in test [3] were 70.3% and 42%, respectively. Moreover, the outcome in test [4] was inactive.

With `Cc1ccccc1/C(O)=C1\C(=O)CN(C)C1=O`, the inhibition of growth at 10 µg/mL in test [1] was 0%; in test [5], 31.2%. Moreover, the results for the inhibition of growth at 100 µg/mL in test [2] and in test [3] were 44.4% and 78.3%, respectively. Besides, in test [4], the outcome was Active.

Turning to `Cc1ccc(/C(O)=C2\C(=O)CN(C(C)(C)C)C2=O)cc1`, the inhibition of growth at 10 µg/mL in test [1] was 13.5%; in test [5], 36.3%. Further, the inhibition of growth at 100 µg/mL in test [2] amounted to 88.1%; in test [3] it was 48%. The outcome in test [4] was inactive.

Consider `CN1CC(=O)/C(=C(/O)c2ccc([N+](=O)[O-])cc2)C1=O`, for which the inhibition of growth at 10 µg/mL in test [1] worked out at 5.1%; in test [5] it was 9%. The values for the inhibition of growth at 100 µg/mL in test [2] and in test [3] were 40.9% and 51.9%, respectively. Further, the outcome in test [4] was inactive.

On to `Cc1cccc(/C(O)=C2\C(=O)CN(C(C)(C)C)C2=O)c1`, for which the inhibition of growth at 10 µg/mL came to 24.9% in test [1] and 4.9% in test [5]. Besides, the inhibition of growth at 100 µg/mL turned out to be 85% in test [2] and 48.5% in test [3]. Moreover, in test [4], the outcome was inactive.

With `CS(=O)(=O)c1ccc(C(=O)C2C(=O)CCCC2=O)c(Cl)c1` [SULCOTRIONE], the inhibition of growth at 10 µg/mL in test [1] worked out at 3.5%; in test [5], 29.4%. The inhibition of growth at 100 µg/mL in test [2] turned out to be 38.1%; in test [3] it was 45.1%. The outcome in test [4] was Active.

Turning to `COc1ccccc1/C(O)=C1\C(=O)CN(C(C)C)C1=O`, the figures for the inhibition of growth at 10 µg/mL in test [1] and in test [5] were 3% and 77.3%, respectively. Also, the values for the inhibition of growth at 100 µg/mL in test [2] and in test [3] were 58.7% and 78.1%, respectively. Besides, in test [4], the outcome was Active.

As to `COc1ccc(/C(O)=C2\C(=O)CN(C)C2=O)cc1`, the figures for the inhibition of growth at 10 µg/mL in test [1] and in test [5] were 7.9% and 16.2%, respectively. For the same compound, the inhibition of growth at 100 µg/mL came out at 50.7% in test [2] and 78.8% in test [3]. Further, the result in test [4] was Active.

`CC(C)(C)N1CC(=O)/C(=C(/O)c2ccc(Cl)cc2)C1=O`: the inhibition of growth at 10 µg/mL in test [1] came out at 13.8%; in test [5] it was 0.4%. The inhibition of growth at 100 µg/mL is 98% in test [2] and 20.8% in test [3]. The outcome in test [4] was inactive.

Take `Cc1cccc(/C(O)=C2\C(=O)CN(C)C2=O)c1`: the values for the inhibition of growth at 10 µg/mL in test [1] and in test [5] were 14% and 25.3%, respectively. The results for the inhibition of growth at 100 µg/mL in test [2] and in test [3] were 64% and 68.3%, respectively. Further, the result in test [4] was Active.

Take `CC(C)N1CC(=O)/C(=C(/O)c2ccc([N+](=O)[O-])cc2)C1=O`: the inhibition of growth at 10 µg/mL came out at 4.5% in test [1] and 0% in test [5]. For the same compound, the results for the inhibition of growth at 100 µg/mL in test [2] and in test [3] were 34.2% and 1.6%, respectively. Moreover, the result in test [4] was inactive.

Consider `COc1ccc(/C(O)=C2\C(=O)CN(C(C)(C)C)C2=O)cc1`, for which the values for the inhibition of growth at 10 µg/mL in test [1] and in test [5] were 5.4% and 78.7%, respectively. Further, the values for the inhibition of growth at 100 µg/mL in test [2] and in test [3] were 77.7% and 80.3%, respectively. The result in test [4] was Active.

Turning to `CC(C)N1CC(=O)/C(=C(/O)c2ccc(Cl)cc2)C1=O`, the inhibition of growth at 10 µg/mL in test [1] was found to be 16%; in test [5] it was 25.1%. Also, the inhibition of growth at 100 µg/mL in test [2] is 77.2%; in test [3] it was 68%. Moreover, the result in test [4] was Active.

With `CN1CC(=O)/C(=C(/O)c2cccc([N+](=O)[O-])c2)C1=O`, the values for the inhibition of growth at 10 µg/mL in test [1] and in test [5] were 0% and 5.2%, respectively. Also, the figures for the inhibition of growth at 100 µg/mL in test [2] and in test [3] were 22.4% and 42.8%, respectively. Moreover, the outcome in test [4] was inactive.

Turning to `CC(C)N1CC(=O)/C(=C(/O)c2ccccc2Cl)C1=O`, the inhibition of growth at 10 µg/mL in test [1] amounted to 38.9%; in test [5], 51%. Further, the inhibition of growth at 100 µg/mL in test [2] worked out at 66.8%; in test [3], 77.9%. Moreover, the result in test [4] was Active.

For the compound `COc1ccccc1/C(O)=C1\C(=O)CN(C(C)(C)C)C1=O`, the inhibition of growth at 10 µg/mL in test [1] was found to be 41.2%; in test [5] it was 74.9%. In addition, the inhibition of growth at 100 µg/mL in test [2] was 69.5%; in test [3], 82.9%. Besides, the outcome in test [4] was Active.

For `Cc1ccccc1/C(O)=C1\C(=O)CN(C(C)C)C1=O`, the inhibition of growth at 10 µg/mL in test [1] came out at 15.2%; in test [5], 76.9%. Moreover, the inhibition of growth at 100 µg/mL is 62.4% in test [2] and 77.3% in test [3]. Moreover, the result in test [4] was Active.

Take `CC(C)(C)N1CC(=O)/C(=C(/O)c2ccc([N+](=O)[O-])cc2)C1=O`: the inhibition of growth at 10 µg/mL in test [1] turned out to be 1.8%; in test [5] it was 0%. Besides, the inhibition of growth at 100 µg/mL in test [2] was 48.1%; in test [3] it was 9.8%. The outcome in test [4] was inactive.

Regarding `CN1CC(=O)/C(=C(/O)c2ccc(Cl)cc2)C1=O`, the inhibition of growth at 10 µg/mL came to 15.8% in test [1] and 9.4% in test [5]. Also, the inhibition of growth at 100 µg/mL is 90.5% in test [2] and 50.1% in test [3]. Further, the outcome in test [4] was inactive.

For the compound `Cc1ccc(/C(O)=C2\C(=O)CN(C(C)C)C2=O)cc1`, the inhibition of growth at 10 µg/mL turned out to be 8.1% in test [1] and 76.8% in test [5]. The inhibition of growth at 100 µg/mL in test [2] came out at 86.4%; in test [3], 78.4%. Moreover, in test [4], the result was Active.

`CC(C)(C)N1CC(=O)/C(=C(/O)c2cccc([N+](=O)[O-])c2)C1=O`: the inhibition of growth at 10 µg/mL is 22.1% in test [1] and 0% in test [5]. Besides, the results for the inhibition of growth at 100 µg/mL in test [2] and in test [3] were 80.1% and 0.5%, respectively. Also, in test [4], the result was inactive.

With `Cc1ccccc1/C(O)=C1\C(=O)CN(C(C)(C)C)C1=O`, the inhibition of growth at 10 µg/mL in test [1] was 21.1%; in test [5] it was 63.6%. For the same compound, the results for the inhibition of growth at 100 µg/mL in test [2] and in test [3] were 74.9% and 74.4%, respectively. The outcome in test [4] was Active.

As to `Cc1cccc(/C(O)=C2\C(=O)CN(C(C)C)C2=O)c1`, the figures for the inhibition of growth at 10 µg/mL in test [1] and in test [5] were 3.3% and 49.2%, respectively. Also, the inhibition of growth at 100 µg/mL in test [2] was found to be 82.1%; in test [3] it was 75.5%. Besides, the outcome in test [4] was Active.

Take `COc1ccc(/C(O)=C2\C(=O)CN(C(C)C)C2=O)cc1`: the inhibition of growth at 10 µg/mL came to 11.9% in test [1] and 79.6% in test [5]. Further, the inhibition of growth at 100 µg/mL was 71% in test [2] and 80% in test [3]. In test [4], the outcome was Active.
